Test results taken from patent publication US11464780B2, “Pyrazolopyrimidine derivative and use thereof” (Simcere Pharmaceutical Co. Ltd., priority 2018, dated 2022).
Where two headings read alike, the source gives them in different places.

Assays:
[1] = molecular target: T1, Ros1 (Homo sapiens, UniProt P08922); experiment: Kinase inhibitory activity (33P-ATP filter binding, Reaction Biology Corp.); format: biochemical; details: read-out: The half maximal inhibitory concentration IC50 on the kinases, Ros1
T1 construct: purchased Reaction Biology Corp. (contract assay)
Protocol: (§1) The mixture was incubated at room temperature for 20 minutes. To the reaction mixture was added a certain concentration of ^33P-ATP to initiate the reaction, and then the mixture was incubated at room temperature for 120 minutes. The radioactivities of the reactants were determined by the method of filter binding. The final kinase activity was expressed as the ratio of the remaining kinase activity in the test sample to the kinase activity in the DMSO control group. The dose-effect curve was fitted by GraphPad software and the IC50 was calculated.

[2] = molecular target: T2, TrkA (Homo sapiens, UniProt P04629); experiment: as above; format: biochemical; details: read-out: The half maximal inhibitory concentration IC50 on the kinases, TrkA
T2 construct: purchased Reaction Biology Corp. (contract assay)
Protocol: as §1

[3] = molecular target: T3, TrkA-G595R (Homo sapiens, UniProt P04629, G595R); experiment: as above; format: biochemical; details: read-out: The half maximal inhibitory concentration IC50 on the kinases, TrkA-G595R
T3 construct: purchased Reaction Biology Corp. (contract assay)
Protocol: as §1

[4] = molecular target: T4, TrkA-G667C (Homo sapiens, UniProt P04629, G667C); experiment: as above; format: biochemical; details: read-out: The half maximal inhibitory concentration IC50 on the kinases, TrkA-G667C
T4 construct: purchased Reaction Biology Corp. (contract assay)
Protocol: as §1

[5] = molecular target: T5, TrkC (Homo sapiens, UniProt Q16288); experiment: as above; format: biochemical; details: read-out: The half maximal inhibitory concentration IC50 on the kinases, TrkC
T5 construct: purchased Reaction Biology Corp. (contract assay)
Protocol: as §1

[6] = molecular target: T6, ALK (Homo sapiens, UniProt Q9UM73); experiment: as above; format: biochemical; details: read-out: The half maximal inhibitory concentration IC50 on the kinases, ALK
T6 construct: purchased Reaction Biology Corp. (contract assay)
Protocol: The inhibitory activities of the compounds on TrkA, TrkC, ALK, Ros1 and other kinases were determined by Reaction Biology Corp. To reaction buffer (20 mM Hepes (pH 7.5), 10 mM MgCl2, 1 mM EGTA, 0.02% Brij35, 0.02 mg/mL BSA, 0.1 mM Na3VO4, 2 mM DTT, 1% DMSO) were sequentially added a certain concentration of substrate, coenzyme factor, kinase and test compound (10 concentrations, 3-fold serial dilutions, DMSO at a final concentration of […]), and the mixture was mixed evenly. The mixture was incubated at room temperature for 20 minutes. To the reaction mixture was added a certain concentration of ^33P-ATP to initiate the reaction, and then the mixture was incubated at room temperature for 120 minutes. The radioactivities of the reactants were determined by the method of filter binding. The final kinase activity was expressed as the ratio of the remaining kinase activity in the test sample to the kinase activity in the DMSO control group. The dose-effect curve was fitted by GraphPad software and the IC50 was calculated.

[7] = molecular target: T7, Ba/F3 LMNA-NTRK1-WT stably transfected cell line (Homo sapiens, UniProt P04629); experiment: Cell proliferation inhibition (CellTiter-Glo); format: cell-based; details: 72 hours, read-out: The half maximal inhibitory concentration IC50 against cells, Ba/F3 LMNA-NTRK1-WT
T7 construct: fused on or other part: P02545 (Prelamin-A/C)
Protocol: Adenosine Tri-Phosphate (ATP) is an energy carrier shared by various life activities in nature, and is the smallest unit of energy storage and transfer. The CellTiter-Glo™ cell viability detection kit uses luciferase as the detection substance, and luciferase requires the participation of ATP during the process of luminescence. CellTiter-Glo™ reagent is added to cell culture medium, and the luminescent intensity is measured. The luminescent signal is directly proportional to the amount of ATP in the system, and ATP is positively related to the number of living cells. Therefore, by using the CellTiter-Glo kit to detect ATP content, cell proliferation can be detected. In this assay, the cell line is Ba/F3 LMNA-NTRK1-WT stably transfected cell line, with 5000 cells/well.
IC50 Determination Process:
1. Cell Culture and Inoculation
a) the cells in the logarithmic growth phase were harvested, and counted with a platelet counter. Trypan blue exclusion method was used to detect cell viability to ensure the cell viability was no less than 90%.
b) the cell concentration was adjusted; 90 μL of cell suspension was added respectively into a 96-well plate.
c) the cells in the 96-well plates was cultured under conditions of 37° C., 5% CO2 and 95% humidity overnight.
2. Drug Dilution and Administration
a) 10-fold drug solutions were prepared, the highest concentration was 10 μM, 9 concentrations, 3-fold diluted (refer to Appendix I). 10 μL of each drug solution was added to each well of the 96-well plate seeded with the cells in triplicate.
b) the cells in the 96-well plate added with the drug were cultured under conditions of 37° C., 5% CO2 and 95% humidity for 72 hours, and then CTG (cell proliferation) was performed.
a) CellTiter-Glo™ reagent was thawed, and the cell plate was equilibrated at room temperature for 30 minutes.
b) CellTiter-Glo™ reagent of a same volume was added to each well;
c) the cell plate was shaken on an orbital shaker for 5 minutes to lyse the cells.
d) the cell plate was placed at room temperature for 20 minutes to stabilize the luminescent signal.
e) the luminescent intensity was read.
GraphPad Prism 5.0 software was used to analyze the data, nonlinear S-curve regression was used to fit the data to obtain dose-effect curve, and IC50 value was calculated therefrom.

[8] = molecular target: T8, Ba/F3 LMNA-NTRK1-G595R stably transfected cell line (Homo sapiens, UniProt P04629, G595R, cells depend on it); experiment: Cell proliferation inhibition (CellTiter-Glo); format: cell-based; details: 72 hours, read-out: The half maximal inhibitory concentration IC50 against cells, Ba/F3 LMNA-NTRK1-G595R
T8 construct: fused on or other part: P02545 (Prelamin-A/C)

[9] = molecular target: T9, BaF3 ETV6-NTRK3-G623R stably transfected cell line (Homo sapiens, UniProt Q16288, G623R, cells depend on it); experiment: Cell proliferation inhibition (CellTiter-Glo); format: cell-based; details: 72 hours, read-out: The half maximal inhibitory concentration IC50 against cells, BaF3 ETV6-NTRK3-G623R
T9 construct: fused on or other part: P41212 (Transcription factor ETV6)

[10] = In vivo pharmacokinetic test in mice; set-up: species or system male CD-1 mice; details: for Cmax: read-out: Peak concentration Cmax; for Vd: read-out: Apparent volume of distribution Vd; for AUC(0-t): read-out: Area under the curve AUC0-last; for half-life: read-out: Half life T1/2 (converted); for bioavailability: read-out: Bioavailability F %; for Tmax: read-out: Time of peak concentration Tmax
Protocol: Experimental object: male CD-1 mice aged 7-9 weeks were used as the experimental animals, the LC/MS/MS method was used to determine the drug concentrations in plasma at different time points after single intravenous (IV) and intragastric (PO) administration of the compounds, in vivo pharmacokinetic behaviors of the compounds of the present disclosure in mice were studied, and pharmacokinetic characteristics thereof were evaluated. Drug preparation: The compounds were prepared into clear solutions with 5% DMSO+10% solutol+85% water as solvent for administration in IV (intravenous) group and PO (intragastric). The dose of the compounds: IV dose of 3 mg/kg, and PO dose of […].

[11] = In vivo cassette pharmacokinetic test in mice; set-up: species or system male CD-1 mice; details: cassette, mice; for Apparent clearance Cl: IV @ 1 mpk
Protocol: The dose of the compounds: […] PO dose of 3 mg/kg, and administration volume of 3 mL/kg.

[12] = test system: human colon cancer cell line KM12 subcutaneous xenograft tumor; experiment: In vivo efficacy, subcutaneous xenograft tumor of human colon cancer KM12; set-up: species or system BALB/c mouse; details: PO
Protocol: Experimental object: evaluation of the in vivo efficacy of test drugs such as WX002A on subcutaneous xenograft tumor of human colon cancer cell line KM12 cell in BALB/c mouse model.
Drug preparation: The compounds were all prepared into clear solutions with 5% DMSO+10% solutol+85% water as solvent for administration in the PO (intragastric) group.
Tumor measurement: the tumor diameters were measured with a vernier caliper twice a week. The calculation formula of tumor volume is: V=0.5×a×b^2, wherein a and b represent the long diameter and short diameter of the tumor, respectively. The anti-tumor efficacy of the compounds is evaluated by TGI (%). TGI (%) reflects tumor growth inhibition rate.
Statistical analysis: The statistical analysis was based on the relative tumor volume and tumor weight at the end of the experiment using SPSS software. One-way ANOVA was used to analyze the comparison between multiple groups. […] P<0.05 was considered to indicate significant difference.

[13] = male, CD-1, mouse, plasma, IV dose of 3 mg/kg
[14] = male, CD-1, mouse, plasma, PO dose of 10 mL/kg vs IV 3 mg/kg
[15] = male, CD-1, mouse, plasma, PO dose of 10 mL/kg

T8 sequence (P04629 whole entry G595R, the tested form may be a part): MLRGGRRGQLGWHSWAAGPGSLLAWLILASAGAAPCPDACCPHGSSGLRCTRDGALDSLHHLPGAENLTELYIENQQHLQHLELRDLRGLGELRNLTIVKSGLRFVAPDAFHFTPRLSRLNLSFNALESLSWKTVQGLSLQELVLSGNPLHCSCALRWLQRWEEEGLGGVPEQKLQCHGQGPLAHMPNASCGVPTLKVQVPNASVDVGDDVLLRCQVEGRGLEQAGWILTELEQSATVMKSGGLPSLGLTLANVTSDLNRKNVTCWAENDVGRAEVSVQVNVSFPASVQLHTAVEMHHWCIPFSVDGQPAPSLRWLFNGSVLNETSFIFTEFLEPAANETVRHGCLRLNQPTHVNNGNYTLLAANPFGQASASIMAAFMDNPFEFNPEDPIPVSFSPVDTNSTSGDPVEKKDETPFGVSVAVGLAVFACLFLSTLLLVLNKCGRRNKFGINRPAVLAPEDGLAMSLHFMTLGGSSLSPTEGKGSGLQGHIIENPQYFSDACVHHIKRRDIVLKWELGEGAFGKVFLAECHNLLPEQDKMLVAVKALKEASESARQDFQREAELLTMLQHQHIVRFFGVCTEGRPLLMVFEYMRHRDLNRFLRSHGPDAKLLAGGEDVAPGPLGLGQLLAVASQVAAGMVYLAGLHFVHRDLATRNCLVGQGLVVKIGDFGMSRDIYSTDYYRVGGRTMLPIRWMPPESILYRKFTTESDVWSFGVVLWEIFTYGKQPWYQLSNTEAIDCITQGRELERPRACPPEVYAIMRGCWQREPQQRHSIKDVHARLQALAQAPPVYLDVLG
T3 sequence (P04629 33-796 G595R): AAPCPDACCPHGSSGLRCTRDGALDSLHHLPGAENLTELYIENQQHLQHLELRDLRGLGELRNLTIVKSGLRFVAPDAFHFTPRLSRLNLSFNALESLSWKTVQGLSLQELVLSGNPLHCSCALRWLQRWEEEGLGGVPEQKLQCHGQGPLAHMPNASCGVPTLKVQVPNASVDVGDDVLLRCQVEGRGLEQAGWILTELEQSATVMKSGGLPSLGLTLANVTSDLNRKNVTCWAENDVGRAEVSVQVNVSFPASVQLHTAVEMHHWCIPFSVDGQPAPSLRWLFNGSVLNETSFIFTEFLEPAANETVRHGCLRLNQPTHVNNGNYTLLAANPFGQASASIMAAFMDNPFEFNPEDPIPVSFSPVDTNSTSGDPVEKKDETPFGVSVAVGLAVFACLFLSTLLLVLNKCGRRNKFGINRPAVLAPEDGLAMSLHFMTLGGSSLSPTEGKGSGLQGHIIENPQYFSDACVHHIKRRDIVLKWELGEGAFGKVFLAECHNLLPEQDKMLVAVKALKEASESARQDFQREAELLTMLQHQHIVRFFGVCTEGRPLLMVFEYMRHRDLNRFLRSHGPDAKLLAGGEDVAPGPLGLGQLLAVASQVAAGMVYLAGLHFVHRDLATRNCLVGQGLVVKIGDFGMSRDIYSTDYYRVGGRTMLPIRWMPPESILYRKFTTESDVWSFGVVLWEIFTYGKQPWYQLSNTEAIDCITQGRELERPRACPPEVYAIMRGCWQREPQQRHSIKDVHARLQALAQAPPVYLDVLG
T4 sequence (P04629 33-796 G667C): as the sequence (P04629 33-796 G595R) above, with R563G, G635C counted along it
T6 sequence (Q9UM73 19-1620): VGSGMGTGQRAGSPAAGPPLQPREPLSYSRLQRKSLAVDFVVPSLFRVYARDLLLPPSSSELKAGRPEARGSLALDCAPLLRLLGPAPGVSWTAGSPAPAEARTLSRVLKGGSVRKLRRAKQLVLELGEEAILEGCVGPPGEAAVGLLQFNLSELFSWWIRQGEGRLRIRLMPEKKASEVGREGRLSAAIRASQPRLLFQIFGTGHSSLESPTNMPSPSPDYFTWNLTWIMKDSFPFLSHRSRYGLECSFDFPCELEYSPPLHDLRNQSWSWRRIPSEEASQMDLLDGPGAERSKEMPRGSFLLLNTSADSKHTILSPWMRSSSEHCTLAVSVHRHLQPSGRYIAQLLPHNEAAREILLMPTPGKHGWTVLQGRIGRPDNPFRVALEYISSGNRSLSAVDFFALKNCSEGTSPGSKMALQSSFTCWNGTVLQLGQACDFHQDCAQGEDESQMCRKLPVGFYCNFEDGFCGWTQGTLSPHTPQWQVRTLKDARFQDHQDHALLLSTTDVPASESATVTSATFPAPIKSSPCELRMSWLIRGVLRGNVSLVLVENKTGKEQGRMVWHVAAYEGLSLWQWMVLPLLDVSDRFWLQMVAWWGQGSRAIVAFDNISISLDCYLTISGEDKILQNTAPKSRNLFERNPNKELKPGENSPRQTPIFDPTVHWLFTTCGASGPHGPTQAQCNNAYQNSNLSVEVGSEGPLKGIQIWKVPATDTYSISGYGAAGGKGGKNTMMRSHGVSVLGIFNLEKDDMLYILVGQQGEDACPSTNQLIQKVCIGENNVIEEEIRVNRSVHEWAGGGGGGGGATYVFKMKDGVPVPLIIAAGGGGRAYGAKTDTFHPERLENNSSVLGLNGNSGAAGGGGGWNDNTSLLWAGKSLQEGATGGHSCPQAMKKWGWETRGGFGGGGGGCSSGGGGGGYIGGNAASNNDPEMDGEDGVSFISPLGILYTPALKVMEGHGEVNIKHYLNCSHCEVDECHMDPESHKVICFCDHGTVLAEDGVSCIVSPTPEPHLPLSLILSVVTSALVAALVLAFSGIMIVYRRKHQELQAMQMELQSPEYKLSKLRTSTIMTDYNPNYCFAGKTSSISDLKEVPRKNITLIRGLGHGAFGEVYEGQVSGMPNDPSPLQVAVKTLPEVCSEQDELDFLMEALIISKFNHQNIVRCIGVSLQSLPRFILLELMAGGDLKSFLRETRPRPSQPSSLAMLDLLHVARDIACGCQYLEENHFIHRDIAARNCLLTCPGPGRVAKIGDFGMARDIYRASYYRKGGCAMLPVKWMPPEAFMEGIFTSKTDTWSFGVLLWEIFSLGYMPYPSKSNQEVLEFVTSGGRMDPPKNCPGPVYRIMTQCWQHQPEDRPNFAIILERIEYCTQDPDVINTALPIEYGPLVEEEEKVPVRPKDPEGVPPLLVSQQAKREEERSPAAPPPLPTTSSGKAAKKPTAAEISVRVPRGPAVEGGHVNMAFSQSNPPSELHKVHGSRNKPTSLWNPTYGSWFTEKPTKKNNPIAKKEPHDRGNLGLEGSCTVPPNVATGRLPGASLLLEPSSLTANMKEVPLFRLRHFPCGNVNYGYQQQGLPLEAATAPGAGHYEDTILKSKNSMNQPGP
T5 sequence (Q16288 32-839): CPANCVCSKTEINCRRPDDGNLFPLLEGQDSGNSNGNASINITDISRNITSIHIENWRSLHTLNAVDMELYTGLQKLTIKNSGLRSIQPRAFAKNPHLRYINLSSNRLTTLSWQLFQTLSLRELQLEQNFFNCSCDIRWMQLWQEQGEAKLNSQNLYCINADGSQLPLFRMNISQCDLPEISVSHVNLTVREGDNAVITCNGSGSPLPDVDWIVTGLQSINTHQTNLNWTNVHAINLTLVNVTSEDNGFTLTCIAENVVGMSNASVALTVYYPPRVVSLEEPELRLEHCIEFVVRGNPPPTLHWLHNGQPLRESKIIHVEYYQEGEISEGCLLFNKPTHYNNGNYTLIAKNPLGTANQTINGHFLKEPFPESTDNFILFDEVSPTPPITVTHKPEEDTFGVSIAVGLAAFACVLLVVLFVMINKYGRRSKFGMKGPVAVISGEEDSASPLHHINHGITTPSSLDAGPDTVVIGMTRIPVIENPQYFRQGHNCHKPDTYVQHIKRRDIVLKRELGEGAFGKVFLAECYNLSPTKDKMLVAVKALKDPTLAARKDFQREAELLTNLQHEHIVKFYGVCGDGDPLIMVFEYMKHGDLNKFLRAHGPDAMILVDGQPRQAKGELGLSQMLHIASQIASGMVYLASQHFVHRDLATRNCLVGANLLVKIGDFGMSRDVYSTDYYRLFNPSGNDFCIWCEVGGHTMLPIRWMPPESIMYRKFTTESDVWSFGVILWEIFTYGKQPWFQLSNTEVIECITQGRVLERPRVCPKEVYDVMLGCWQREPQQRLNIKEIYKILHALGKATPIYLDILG
T7 sequence (P04629 whole entry, stated change not applied, the tested form may be a part): as the sequence (P04629 whole entry G595R, the tested form may be a part) above, with R595G counted along it
T9 sequence (Q16288 whole entry G623R, the tested form may be a part): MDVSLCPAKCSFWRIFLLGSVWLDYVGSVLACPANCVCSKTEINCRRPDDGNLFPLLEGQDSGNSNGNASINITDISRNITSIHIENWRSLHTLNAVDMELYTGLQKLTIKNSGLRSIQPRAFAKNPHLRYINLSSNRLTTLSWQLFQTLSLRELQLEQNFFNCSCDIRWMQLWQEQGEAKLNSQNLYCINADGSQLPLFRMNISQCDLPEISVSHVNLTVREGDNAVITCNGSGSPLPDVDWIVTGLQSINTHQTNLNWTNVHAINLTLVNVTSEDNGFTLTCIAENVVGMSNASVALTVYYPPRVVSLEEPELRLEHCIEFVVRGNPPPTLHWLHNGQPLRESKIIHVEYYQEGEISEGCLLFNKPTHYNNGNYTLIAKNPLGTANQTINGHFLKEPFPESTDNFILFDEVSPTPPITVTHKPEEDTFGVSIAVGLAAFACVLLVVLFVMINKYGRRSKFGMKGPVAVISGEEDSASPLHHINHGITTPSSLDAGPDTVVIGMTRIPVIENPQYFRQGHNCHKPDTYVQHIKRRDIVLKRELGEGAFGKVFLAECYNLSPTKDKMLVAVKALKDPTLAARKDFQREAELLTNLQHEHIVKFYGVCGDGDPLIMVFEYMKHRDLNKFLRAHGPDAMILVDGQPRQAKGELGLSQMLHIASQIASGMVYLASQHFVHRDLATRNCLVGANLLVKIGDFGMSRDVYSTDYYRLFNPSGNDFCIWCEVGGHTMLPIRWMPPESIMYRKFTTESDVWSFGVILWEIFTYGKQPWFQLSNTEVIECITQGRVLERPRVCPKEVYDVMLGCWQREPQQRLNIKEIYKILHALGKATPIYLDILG
T2 sequence (P04629 33-796): as the sequence (P04629 33-796 G595R) above, with R563G counted along it

IC50 [1]	IC50 [2]	IC50 [3]	IC50 [4]	IC50 [5]	IC50 [6]	GI50 [7]	GI50 [8]	GI50 [9]	Apparent clearance Cl ([10]; IV dose of 3 mg/kg)	Area under the curve AUC0-last ([10]; PO dose of 10 mL/kg)	Time of peak concentration Tmax ([10]; PO dose of 10 mL/kg)	Cmax ([10]; PO dose of 10 mL/kg)	Vd [10, 13]	AUC(0-t) [10, 13]	half-life [10, 13]	bioavailability [10, 14]	AUC(0-t) [10, 15]	Cmax [10, 15]	Tmax [10, 15]	Structure (SMILES)	also measured
0.15 nM	2.66 nM	3.59 nM	3.04 nM	0.06 nM	28.1 nM	4.08 nM	27.9 nM	0.9 nM	10.8 mL/min/kg	27.967 µM·h	22.8 min	7.36 µM								O=C1NC2(CC2)COc2ccc(F)cc2[C@H]2CCON2c2ccn3ncc1c3n2 (single isomer, unassigned) [WX003A]	Apparent volume of distribution Vd ([10]; IV dose of 3 mg/kg): 0.81 L/kg; Area under the curve AUC0-last ([10]; IV dose of 3 mg/kg): 12.216 µM·h; Half life T1/2 ([10]; IV dose of 3 mg/kg): 42 min; Bioavailability F % ([10]; PO dose of 10 mL/kg vs IV 3 mg/kg): 69%
										2.89 µM·h	22.8 min	1.55 µM								O=C(Nc1cnn2ccc(N3CCC[C@@H]3c3cc(F)ccc3F)nc12)N1CC[C@H](O)C1 [LOXO-101, Larotrectinib, reference compound]	Apparent clearance Cl [11]: 22.7 mL/min/kg; drug concentration in cerebrospinal fluid at 0.5 hour CSF@0.5 h ([11]; PO @ 3 mpk, CSF): 15 nmol/kg; drug concentration in cerebrospinal fluid at 2 hour CSF@2 h ([11]; PO @ 3 mpk, CSF, 2 h): 3 nmol/kg; drug concentration in brain at 0.5 h Brain@0.5 h ([11]; PO @ 3 mpk): 40 nmol/kg; drug concentration in brain at 2 h Brain@2 h ([11]; PO @ 3 mpk, 2 h): 20 nmol/kg; T/C ([12]; high-dose group 60 mg/kg): 34.20%; TGI ([12]; high-dose group 60 mg/kg): 69.73%
																				C[C@H]1CNC(=O)c2cnn3ccc(nc23)N[C@H](C)c2cc(F)ccc2O1 [TPX-0005, reference compound]	Apparent clearance Cl [11]: 16.5 mL/min/kg; drug concentration in cerebrospinal fluid at 0.5 hour CSF@0.5 h ([11]; PO @ 3 mpk, CSF): 8 nmol/kg; drug concentration in brain at 0.5 h Brain@0.5 h ([11]; PO @ 3 mpk): 50 nmol/kg; drug concentration in brain at 2 h Brain@2 h ([11]; PO @ 3 mpk, 2 h): 41 nmol/kg; T/C ([12]; dose of 3 mg/kg): 16.80%; TGI ([12]; dose of 3 mg/kg): 87.46%
0.94 nM	14.3 nM	38.5 nM	42 nM	0.41 nM	109 nM	7.69 nM	14.5 nM	2.1 nM	10.4 mL/min/kg				0.75 L/kg	12.5 µM·h	44.4 min	72%	29.6 µM·h	10.5 µM	30 min	C[C@@H]1COc2ncc(F)cc2[C@H]2CCON2c2ccn3ncc(c3n2)C(=O)N1 [WX004A]	
0.59 nM	9.84 nM	4.74 nM	37.5 nM	0.16 nM	79.2 nM	23.5 nM	19.4 nM	5.4 nM	19.9 mL/min/kg				1.01 L/kg	6.1 µM·h	33.6 min	72%	14.4 µM·h	8.78 µM	15 min	O=C1NC2(COC2)COc2ncc(F)cc2[C@H]2CCON2c2ccn3ncc1c3n2 [WX006A]	
0.82 nM	13.4 nM	37.1 nM	26.3 nM	0.3 nM	119 nM				17.8 mL/min/kg				0.74 L/kg	7.34 µM·h	42.6 min	111%	26.7 µM·h	10.8 µM	37.8 min	C[C@@H]1COc2ccc(F)cc2[C@H]2CCON2c2ccn3ncc(c3n2)C(=O)N1 [WX017A]	
